This note sets out measurements from ChEMBL document CHEMBL5360657, “Discovery of the TLR7/8 Antagonist MHV370 for Treatment of Systemic Autoimmune Diseases” (ACS Med Chem Lett, 2023).

For orientation: IC50 means the concentration that inhibits the measured activity by half. For orientation: AUC means the area under the concentration-time curve, a measure of exposure. The term MRT denotes the average time that molecules of a dose stay in the body. Broadly, the bioavailability is the share of a dose that reaches the circulation, judged against a reference dose that is usually intravenous. A lower bioavailability goes with poor availability. What is called Cmax is the highest concentration seen after dosing.

For data set [1], the target named is T1, Cytochrome P450 3A4 (Homo sapiens, UniProt P08684). Put plainly: Inhibition of CYP3A4 (unknown origin). Format: ADME.
T1 sequence (P08684 whole entry): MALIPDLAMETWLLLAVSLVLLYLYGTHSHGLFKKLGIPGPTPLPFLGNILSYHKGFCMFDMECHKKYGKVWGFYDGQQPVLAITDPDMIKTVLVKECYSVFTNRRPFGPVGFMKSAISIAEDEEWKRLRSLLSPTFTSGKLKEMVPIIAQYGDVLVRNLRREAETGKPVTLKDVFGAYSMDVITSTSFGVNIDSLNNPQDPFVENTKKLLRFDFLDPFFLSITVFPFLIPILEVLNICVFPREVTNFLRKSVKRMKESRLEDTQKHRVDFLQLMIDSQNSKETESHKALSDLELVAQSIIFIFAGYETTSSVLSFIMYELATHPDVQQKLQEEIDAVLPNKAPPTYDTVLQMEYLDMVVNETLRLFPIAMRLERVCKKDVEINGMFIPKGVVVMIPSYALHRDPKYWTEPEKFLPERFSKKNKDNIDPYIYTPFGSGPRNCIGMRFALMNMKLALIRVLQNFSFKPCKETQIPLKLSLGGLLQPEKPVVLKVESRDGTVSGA
Data set [2] in a line: AUC in rat at 1 mg/ml, po. Format: ADME. Details: dose 1 mg/ml, route po. The settings on record: in vivo.
Data set [3] is described as follows: Metabolic stability in human liver microsomes assessed as intrinsic clearance. Format: ADME, Microsome. The note with it: read-out: CLH. A general note: Liver microsomes are vesicles of endoplasmic reticulum, rich in cytochrome P450 enzymes.
Data set [4] in a line: MRT in rat at 1 mg/ml, po or iv. Format: ADME, organism-based. The note with it: in vivo.
Data set [5] in a line: Metabolic stability in rat liver microsomes assessed as intrinsic clearance. Format: ADME, Microsome. The note with it: read-out: CLH.
Data set [6] is described as follows: Permeability of the compound by PAMPA. Format: ADME. (In PAMPA a lipid-coated filter parts donor from acceptor wells.)
The target in data set [7] is T2, Toll-like receptor 9 (Homo sapiens, UniProt Q9NR96).
T2 sequence (Q9NR96 whole entry): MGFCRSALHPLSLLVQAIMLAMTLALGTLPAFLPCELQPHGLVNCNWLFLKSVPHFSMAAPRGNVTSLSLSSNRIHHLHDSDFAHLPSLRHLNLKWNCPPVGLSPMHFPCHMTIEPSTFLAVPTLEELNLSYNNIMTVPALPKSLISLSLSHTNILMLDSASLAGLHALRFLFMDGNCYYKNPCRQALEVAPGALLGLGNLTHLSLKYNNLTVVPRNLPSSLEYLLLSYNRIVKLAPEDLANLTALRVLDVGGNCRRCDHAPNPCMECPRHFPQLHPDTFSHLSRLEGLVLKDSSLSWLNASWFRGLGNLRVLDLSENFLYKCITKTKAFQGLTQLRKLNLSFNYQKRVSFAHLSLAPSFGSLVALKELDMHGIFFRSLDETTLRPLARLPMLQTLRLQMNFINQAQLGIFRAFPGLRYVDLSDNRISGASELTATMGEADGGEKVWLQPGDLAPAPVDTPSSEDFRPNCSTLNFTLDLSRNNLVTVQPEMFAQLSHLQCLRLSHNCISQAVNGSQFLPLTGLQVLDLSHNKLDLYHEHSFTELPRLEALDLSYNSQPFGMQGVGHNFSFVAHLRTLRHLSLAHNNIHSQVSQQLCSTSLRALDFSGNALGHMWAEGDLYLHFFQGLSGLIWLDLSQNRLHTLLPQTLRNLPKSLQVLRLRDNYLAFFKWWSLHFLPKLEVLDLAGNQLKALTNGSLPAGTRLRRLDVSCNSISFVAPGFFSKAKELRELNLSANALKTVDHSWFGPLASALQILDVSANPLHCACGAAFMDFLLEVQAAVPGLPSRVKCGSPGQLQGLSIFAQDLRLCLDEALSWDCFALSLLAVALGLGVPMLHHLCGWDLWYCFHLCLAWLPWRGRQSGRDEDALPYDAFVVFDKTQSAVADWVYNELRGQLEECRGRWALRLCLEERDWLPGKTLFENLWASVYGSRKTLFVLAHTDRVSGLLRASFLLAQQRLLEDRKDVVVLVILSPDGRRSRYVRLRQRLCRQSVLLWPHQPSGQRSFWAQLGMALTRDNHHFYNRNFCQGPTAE
In words: Antagonist activity at TLR9 in human PBMC cells assessed as reduction in IFN alpha measured after 20 hrs by AlphaLISA assay. Format: cell-based.

The target of data set [8] is T1, Cytochrome P450 3A4. Put plainly: Time dependent inhibition of CYP3A4 (unknown origin) assessed as Kobs. Format: ADME.
Data set [9] concerns the target Voltage-gated inwardly rectifying potassium channel KCNH2 (Homo sapiens, UniProt Q12809). In words: Displacement of [3H]-dofetilite from human ERG (unknown origin). Format: toxicity. On the technique in general: Loss of bound radioactivity is the signal in a displacement assay; it reports binding, not function.
In data set [10] the target is T3, Toll-like receptor 8 (Homo sapiens, UniProt Q9NR97).
T3 sequence (Q9NR97 whole entry): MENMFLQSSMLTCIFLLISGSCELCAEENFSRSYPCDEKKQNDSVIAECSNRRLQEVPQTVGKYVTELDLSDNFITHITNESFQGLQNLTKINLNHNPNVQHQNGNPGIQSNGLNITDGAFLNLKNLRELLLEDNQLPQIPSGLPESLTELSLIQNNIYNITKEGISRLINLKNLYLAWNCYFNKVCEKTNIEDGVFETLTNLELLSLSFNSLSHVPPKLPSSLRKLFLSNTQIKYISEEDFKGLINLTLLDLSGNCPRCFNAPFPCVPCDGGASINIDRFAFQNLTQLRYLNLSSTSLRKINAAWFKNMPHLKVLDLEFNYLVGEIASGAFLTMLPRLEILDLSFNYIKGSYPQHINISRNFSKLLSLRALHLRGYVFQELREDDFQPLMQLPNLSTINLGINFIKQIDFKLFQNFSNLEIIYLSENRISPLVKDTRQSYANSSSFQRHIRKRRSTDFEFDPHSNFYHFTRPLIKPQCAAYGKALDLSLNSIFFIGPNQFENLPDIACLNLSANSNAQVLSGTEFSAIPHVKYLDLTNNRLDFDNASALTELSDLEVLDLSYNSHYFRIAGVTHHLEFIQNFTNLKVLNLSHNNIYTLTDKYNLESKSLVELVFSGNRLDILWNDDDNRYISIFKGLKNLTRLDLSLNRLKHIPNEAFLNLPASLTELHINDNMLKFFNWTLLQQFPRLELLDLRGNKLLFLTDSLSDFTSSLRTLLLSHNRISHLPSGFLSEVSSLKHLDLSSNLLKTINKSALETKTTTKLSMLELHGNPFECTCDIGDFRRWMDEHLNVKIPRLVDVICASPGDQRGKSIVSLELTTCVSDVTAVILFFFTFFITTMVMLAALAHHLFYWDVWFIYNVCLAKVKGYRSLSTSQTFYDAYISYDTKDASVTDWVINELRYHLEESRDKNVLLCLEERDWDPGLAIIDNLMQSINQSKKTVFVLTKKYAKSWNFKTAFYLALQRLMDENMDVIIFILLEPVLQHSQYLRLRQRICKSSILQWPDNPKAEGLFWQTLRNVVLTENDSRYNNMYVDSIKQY
Put plainly: Antagonist activity at TLR8 in human PBMC cells […] assessed as reduction in IL-6 level measured after 20 hrs by AlphaLISA assay. Format: cell-based.

A short description of data set [11]: Oral bioavailability in mouse at 1 mg/ml. The note with it: in vivo. Format: ADME, organism-based.
The nature of data set [12]: Cmax in rat at 1 mg/ml, po. Format: ADME. Details: dose 1 mg/ml, route po. The note with it: in vivo.
Data set [13] in a line: Metabolic stability in mouse liver microsomes assessed as intrinsic clearance. Format: ADME, Microsome. The settings on record: read-out: CLH.

Voltage-gated inwardly rectifying potassium channel KCNH2, sequence (Q12809 whole entry): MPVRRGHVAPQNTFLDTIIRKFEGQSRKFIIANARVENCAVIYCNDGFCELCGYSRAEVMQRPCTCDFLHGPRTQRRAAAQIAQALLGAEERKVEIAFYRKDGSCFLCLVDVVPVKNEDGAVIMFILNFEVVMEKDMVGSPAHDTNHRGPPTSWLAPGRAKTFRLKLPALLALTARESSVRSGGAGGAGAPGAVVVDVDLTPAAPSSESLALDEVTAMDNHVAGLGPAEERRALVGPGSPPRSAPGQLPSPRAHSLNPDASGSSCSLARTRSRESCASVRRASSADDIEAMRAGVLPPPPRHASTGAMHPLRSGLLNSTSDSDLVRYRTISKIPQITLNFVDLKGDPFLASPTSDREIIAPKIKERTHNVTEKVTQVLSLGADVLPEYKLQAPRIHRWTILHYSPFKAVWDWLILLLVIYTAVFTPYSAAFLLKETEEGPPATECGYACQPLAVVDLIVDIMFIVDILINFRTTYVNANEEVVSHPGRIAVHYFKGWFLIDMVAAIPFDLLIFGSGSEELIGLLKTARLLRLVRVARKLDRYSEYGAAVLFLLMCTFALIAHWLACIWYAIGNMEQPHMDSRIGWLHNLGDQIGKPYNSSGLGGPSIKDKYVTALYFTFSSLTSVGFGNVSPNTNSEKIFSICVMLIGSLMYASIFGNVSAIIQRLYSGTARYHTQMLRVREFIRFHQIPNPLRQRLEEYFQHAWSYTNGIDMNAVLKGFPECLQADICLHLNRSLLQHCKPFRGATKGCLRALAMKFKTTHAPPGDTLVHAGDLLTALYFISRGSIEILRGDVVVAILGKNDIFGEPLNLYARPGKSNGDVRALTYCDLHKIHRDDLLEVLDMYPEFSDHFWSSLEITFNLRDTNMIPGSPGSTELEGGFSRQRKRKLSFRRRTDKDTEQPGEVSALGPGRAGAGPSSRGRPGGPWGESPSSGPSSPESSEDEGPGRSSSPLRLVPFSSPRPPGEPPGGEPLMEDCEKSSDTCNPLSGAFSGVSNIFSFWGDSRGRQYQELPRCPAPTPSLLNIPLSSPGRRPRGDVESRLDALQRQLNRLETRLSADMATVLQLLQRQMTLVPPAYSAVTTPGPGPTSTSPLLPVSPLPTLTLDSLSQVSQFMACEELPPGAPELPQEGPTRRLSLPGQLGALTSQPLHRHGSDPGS

In the case of `Cc1cc(N2CCc3c(c(C)nn3CC34CCC(NC(=O)[C@@H]5COCCN5)(CC3)CC4)C2)c2cnn(C)c2n1` [MHV-370], the half-maximal inhibitory concentration (IC50) in data set [1] is greater than 50000 nM; in [7], 1000 nM; in data set [9], greater than 30000 nM; in [10], 68 nM. The AUC in data set [2] is 2.82 µM·h. Also, the microsomal CLint in data set [3] was 19 µL/min/mg; in data set [5], 17 µL/min/mg; in data set [13], 52 µL/min/mg. The MRT in [4] amounted to 1.2 h. Also, the “log(permeability)” value in data set [6] is on record as -5.2. Further, the Kobs in [8] amounted to 0.006 min⁻¹. The compound further showed a bioavailability in data set [11] of 32%. The compound further came in with a Cmax in data set [12] of 282 nM.
In the case of `Cc1cc(N2CCc3c(c(C)nn3CC34CCC(N)(CC3)CC4)C2)c2cnn(C)c2n1`, the IC50 was greater than 50000 nM in data set [1], 580 nM in data set [7], 29000 nM in data set [9] and 210 nM in data set [10]. Further, the microsomal CLint was 19 µL/min/mg in data set [3], 36 µL/min/mg in data set [5] and 15 µL/min/mg in data set [13]. Further, the “log(permeability)” value in [6] is recorded as -5.1. Moreover, the Kobs in [8] was 0.002 min⁻¹.
As to `CCNCC(=O)NC12CCC(Cn3nc(C)c4c3CCN(c3cc(C)nc5c3cnn5C)C4)(CC1)CC2`, the IC50 in data set [1] was greater than 50000 nM; in data set [7], 810 nM; in data set [9], greater than 30000 nM; in data set [10] it was 44 nM. Also, the AUC in [2] came out at 0.618 µM·h. Further, the results for the microsomal CLint in data set [3], in data set [5] and in [13] were 35 µL/min/mg, less than 15 µL/min/mg and 96 µL/min/mg, respectively. In [4], this compound displayed an MRT of 2.8 h. For the same compound, the “log(permeability)” value in [6] is given as -5.3. In addition, the Kobs in [8] turned out to be 0.01 min⁻¹. Also, the bioavailability in [11] came out at 10%. For the same compound, the Cmax in [12] worked out at 48 nM.
